# Test results from patent US20220334101A1, “MODULATING EXTRACELLULAR MATRIX MOVEMENT” (Helmholtz Zentrum Muenchen - Deutsches Forschungszentrum …, priority 2019, published 2022).
# “Also recorded” adds a separate entry of the source. Counter-ions that a name gives are not always drawn. Like-named read-outs stand apart in the source and are kept apart here.
# Key:
# fascia matrix = test: Fascia in vitro culture, live imaging of matrix movements (SHG); format: cell-based, mouse; details: C57BL6/J neonate fascia biopsy, 100 μM Etoposide
# Procedure: Two in vitro systems were used. To visualize the changes in matrix architecture in real time, 2 mm-diameter biopsies were excised from P0 C57BL/6J neonates and processed for live imaging (SCAD assay, Patent Application No. PLA17A13). To determine the effectiveness of the DT treatment, muscle+fascia was manually separated from the rest of the skin in the chimeric grafts experiments and incubated with DT at different concentrations for 1 h at ambient temperature. […]
# Histological sections were imaged using a using a ZEISS AxioImager.Z2m (Carl Zeiss). […] Second harmonic generation signal and green auto-fluorescence as a reference were recorded every hour. […]
# Histological images were analyzed using ImageJ. For quantification of labeled cells in the fate mapping experiments, the Inventors manually defined the wound, surrounding dermis, and adjacent fascia areas. […] The number of labeled cells in each area was determined by quantifying the particles that were double-positive for DAPI and for the desired label (eg. Dil, GFP, etc) channels. The coverage of the labeled matrix in the wound area was determined by quantifying the area that was double-positive for the labeled matrix and the COLLAGEN I+III+VI staining signal. […] Scar length was quantified from randomly selected sections taken from the middle of the scar using as a reference the two flanking hair follicles. […]
# skin-fascia explants = test: Scar-in-a-dish (SCAD) ex vivo skin-fascia explant assay, screening of Prestwick chemical library; format: cell-based, mouse; details: molecules of table 1 named as inhibitors of ECM movement
# Excerpt: Post born Day 0 (P0) neonates of C57BL/6J wild type mouse were first sacrificed by decapitation. Then dorsal back skin was isolated to make 2 mm full thickness biopsies (0 2 mm, Stiefel) that included the epidermis, dermis and deep subcutaneous fascia layers. The whole skin tissue explant system is termed as scar-in-a-dish (SCAD) assay (Patent Application no. PLA17A13). The SCAD tissue was maintained in DMEM/F12 cell culture medium (Life Technologies) supplemented with 10% FBS (Life Technologies), 1% non-essential amino acid (Thermo Fisher), 1% Glutamax (Thermo Fisher), 1% penicillin and streptomycin (Thermo Fisher) in a 37° C. incubator supplied with […] and 5% CO2. Medium was changed every other day until day 5 when SCADs were collected and fixed for histology analysis. To be noticed, the excised skin was submerged […] in culture media, which confined the scar-prone fibroblasts to the explant and discouraged their adherence to the tissue culture plate.
# The PCL provides an additional advantage as all chemicals are of stable physicochemical properties, show a high range of chemical diversity, and are with known bioavailability and safety data in humans. All these information helps to reduce the probability of screening low-quality hits and save the costs of preliminary screening process.
# In order to accommodate to medium scale screening approach, the Inventors adapted the SCAD explant system into 96-well plate (Falcon) formats, with each well contained one biopsy. […] Plate and liquid handling were performed using a high-throughput screening platform system composed of a Sciclone G3 Liquid Handler from PerkinElmer (Waltham, Mass., USA). On Day 0 tissues were treated either with the respective compound (1 mM stock solution) dissolved in 100% dimethyl sulfoxide (DMSO, Carl Roth) or DMSO alone. 0.5 μl of compounds/DMSO were transferred with a 96-array head to 200 μl DMEM/F12 medium per well to keep the final DMSO concentrations at […]. Tissues were then incubated (37° C.; 5% CO2) for 72 h prior to a second round of compound treatment, which was performed by exchanging cell culture medium per well and transferring […] of compounds/DMSO into the fresh medium. After an incubation time of another 48 h (37° C.; 5% CO2) the tissues were harvested and fixed for histological processing and imaging.
# Briefly, the Inventors excised 2-mm full thickness skin biopsies that included epidermis, dermis, and deep subcutaneous fascia layers from mouse backs (see Methods). Skin-fascia explants were submerged fascia-side up in culture media, to confine scar-prone fibroblasts to the explant and discourage their adherence to the tissue culture plate.
# The Prestwick library has selected a diverse array of chemicals with strong physicochemical properties, with known bioavailability and clinical safety data. The library is an ideal place to start screening as it covers all major therapeutic chemical classes such as central nervous system, cardiovascular system, metabolism, and infectious diseases.
# fascia fibroblasts [1] = test: Fascia invasion assay (ex vivo fascia 3D Matrigel culture); format: cell-based, mouse
# Procedure: In order to observe the dynamic changes of fascia fibroblasts, the inventors isolated dorsal skin from P4 to P6 neonates of En1^Cre; R26^mTmG mouse lines. Cre positive neonates from this double transgenic mouse line were detected by green fluorescent signal in dorsal skin with a Leica M205 FA stereo microscope. Matrigel was prepared by diluting the stock aliquots with DMEM/F12 medium to a concentration of 6 mg/ml. Then 150 μl prepared gel was added in the center of a 35 mm cell culture dish (Ibidi). 4 mm biopsies were made from the dorsal skin and fascia tissues were then isolated from the dorsal skin tissues. Isolated fascia tissues were then embedded into the gel and were allowed to be solidified for one hour at 37° C. Then the tissue-gel system was maintained in DMEM/F12 medium (Life Technologies) supplemented with 10% FBS (Life Technologies), 1% non-essential amino acid (Thermo Fisher), 1% Glutamax (Thermo Fisher), 1% penicillin and streptomycin (Thermo Fisher) in a 37° C. incubator supplied with 95% O2 and 5% CO2. Medium was changed every other day until day 4 when tissues were collected and fixed. For fixation with Matrigel system, tissues were fixed in 2% paraformaldehyde (VWR) with 0.1% glutaraldehyde (Sigma) for 1 hour and then washed three times with phosphate buffered saline (PBS, Life Technologies) and stored in PBS at 4° C.
# Fascia tissues were recorded everyday by a brightfield microscope to check the invasion and contraction state of the tissues. The invasion index was calculated with the following formula: Invasion index=(SD4−SD0)/SD0
# SD4 and SD0 represent tissue size (including the migrated area) on Day 4 and Day 0, respectively. The contraction index was calculated with the following formula: Contraction index=(TD0−TD4)/TD0
# TD4 and TD0 represent original tissue size (excluding the migrated area) on Day 4 and Day 0 respectively.
# The Inventors isolated fascia from back-skin of En1^Cre; R26^mTmG double-transgenic mice, separately incubated whole fascia explants with 26 small molecules, and measured the invasion index (Si)=(SD4−SD0)/SD0 (see Methods) as a proxy measure of sprouting and reticulation.
# Gli1 = test: 3D staining of fascia tissue for Gli1 (hedgehog pathway); format: cell-based, mouse; details: fascia tissue in Matrigel
# Procedure: (§1) In order to characterize the properties of fascia samples cultured in Matrigel, the Inventors fixed the whole gel (with fascia tissue embedded inside) and conducted 3D staining. Samples were immersed overnight in PBSGT (lx PBS implemented with 0.2% gelatin (Sigma), 0.5% Triton X-100 (Sigma) and 0.01% thimerosal (Sigma)) at room temperature and incubated with primary antibodies diluted in PBSGT for three days at room temperature. The tissues were then washed three times with PBSGT for at least 30 min each time and incubated with secondary antibodies diluted in PBSGT for one day. Finally, tissues were rinsed three times with PBSGT and stored in PBS at 4° C. until imaging. 3D whole mount imaging was conducted with a Leica SP8 multi-photon microscope.
# (§2) Primary and secondary antibodies applied in 3D staining: αSMA (ab21027, Abcam), Ki 67 (ab16667, Abcam), Cleaved Caspase-3 (9661S, Cell signalling), Gli1 (ab49314, Abcam), Donkey anti rabbit AF647 (A-31573, Life Technologies), Donkey anti goat AF647 (A-21447, Life Technologies).
# To better understand the molecular basis of reticulations that leads to scarring, the Inventors took a closer look at the molecular targets of the ‘hit’ chemicals. […] Thiostrepton reduces the binding activity of the transcriptional factor FoxM1; a positive regulator of Gli1 signaling (REF). […]
# fascia fibroblasts [2] = test: 3D staining of fascia tissue for αSMA, Ki67 and caspase 3; format: cell-based, mouse; details: fascia tissue in Matrigel
# Procedure: as §1, §2
# To better understand the molecular basis of reticulations that leads to scarring, the Inventors took a closer look at the molecular targets of the ‘hit’ chemicals. […] Thiostrepton reduces the binding activity of the transcriptional factor FoxM1; a positive regulator of Gli1 signaling (REF). Whereas Itraconazole inhibits Gli nuclear activity through stopping SMO moving to the membrane of primary cilia and thus inhibiting the pathway (James et al., 2010). […] The 3rd anti-scar drug Fluvastatin inhibits 3-Hydroxy-3-methylglutaryl-coenzyme A (HMG-CoA) reductase, a rate-limiting enzyme in cholesterol biogenesis that is required for hedgehog pathway activation (Huang P et al., 2016; Giovanni Luchetti et al., 2016). […] Thus, the Inventors conclude that anti-fibrosis chemicals converge on SHH pathway signaling to modulate fibroblast sprouting and reticulations, needed to mobilize fascia jelly into sites of injury.
# The hedgehog pathway was also reported to induce proliferation and to depress apoptosis.
# [3] = system: fascia matrix mobilization into wounds; test: Fascia labelling study: fascia mobilization into excisional back-skin wounds in live mice; format: in vivo, mouse; details: 75 μl of 250 μM three times a week, wounds collected Day 7
# Procedure: For the fascia labelling study, 2 mg/ml NHS-fluorescein dye was subcutaneously injected into dorsal skin of wildtype mice at 4 days and 2 days prior to the surgery. After labelling, excisional wounds were made in mouse back-skin and treated with 75 μl saline diluted chemical solutions with a final concentration of 250 μM three times a week from the surgery day onwards. Scar samples were collected on D7.
# Having discovered sprouting and reticulations are altered by the compounds, the Inventors went on to check how these effect fascia mobilization in physiologic wounds in live animals. First, the Inventors labelled the subcutaneous fascia layer with a FITC-NHS ester dye in animals, then made full thickness excisional wounds on the backs of fascia-labelled mice, and followed wound healing under the presence of a […] injection regimen using the above 3 separate compounds. Skin wounds were collected at Day 7 after wounding to determine the extent of fascia mobilization and also at 21 days post-injury to determine final wound size and scar severity. In DMSO control groups, the fascia matrix jelly was mobilized into the wound from all sides of the wound, and wounds at 7 days were completely clogged with large patches of labelled matrix jelly.
# [4] = system: scars of splinted back-skin wounds; test: In vivo splinted wound model (scar formation); set-up: species or system mouse; details: 75 μl per wound of 250 μM intra-dermally, day 21, trichrome staining
# [5] = system: pleural fluid matrix movement into lungs; test: Bleomycin-induced lung fibrosis model with pleural matrix fate tracing; format: in vivo, mouse
# Procedure: The inventors generated a labelling solution by mixing 5 μl NHS-ester (25 mg/ml) with 5 μl of 100 mM pH 9.0 sodium bicarbonate buffer, combining with 40 μl PBS to a total volume of 50 μl. The labelling solution was applied intra pleural under isoflurane anaesthesia by using a 30G cannula. The oropharyngeal administration of bleomycin for the induction of pulmonary fibrosis was carried out in an antagonistic anesthesia in C57BL/6J mice of both sexes (6-8 weeks age). After the toe-pinch reflex was absent, the mouse was placed on the incisors of the upper jaw and thus kept in an upright position. The tongue was carefully fixed and held to the side with tweezers while the nose of the animal is covered with tweezers. By keeping the nose closed, the mouse was forced to breathe through the mouth. With the help of a pipette, bleomycin was dissolved in a dosage of 2 units/kg KGW in 80 μl PBS carefully into the throat. As soon as the animal has inhaled the solution, it was tansferred to a Hot plate (duration approx. 30 to 60 seconds). After antagonization animals were housed for 14 days. Nintedanib was added 1 hour before bleomycin installation and every other day intra peritoneal 10 μM. To directly answer if Nintedanib's anti-fibrotic actions are mediated through its effects on fluid matrix movements, the Inventors labeled fluid matrix reservoirs on lung surfaces as before, induced lung inflammation and fibrosis with Bleomycin, and followed these mice with daily injections of Nintedanib (FIG. 44B). […] Both lung alveoli and major blood vessels lacked accretions of labeled fibers.
# [6] = listed as Fluvastatin, sodium salt
compound,measurement,setting,value
COc1cc([C@@H]2c3cc4c(cc3[C@@H](O[C@@H]3O[C@@H]5CO[C@@H](C)O[C@H]5[C@H](O)[C@H]3O)[C@H]3COC(=O)[C@H]23)OCO4)cc(OC)c1O [Etoposide],fascia matrix movements (contraction),fascia matrix,no effect; also recorded: clear contraction of the fascial matrix in culture in absence of cell proliferation
CC(C)n1c(/C=C/C(O)CC(O)CC(=O)O)c(-c2ccc(F)cc2)c2ccccc21 (stereo not drawn) [Fluvastatin sodium salt],phenotype as inhibitor of ECM movement,skin-fascia explants,anti-fibrotic phenotype
same,"inter-cell connectivity, sprouting and reticulations within the fascia",fascia fibroblasts [1]; [6],intact cell-cell connection and network formation
same,"inter-cell connectivity, sprouting and reticulations within the fascia",fascia fibroblasts [1]; sodium salt,completely inhibited sprouting and reticulations
same,Gli1 protein expression,Gli1,weakly expressed
same,cell death (caspase 3),fascia fibroblasts [2],increased
same,cell proliferation activity (Ki67),fascia fibroblasts [2],decreased
same,αSMA expression / activation into myofibroblasts,fascia fibroblasts [2],cells can be activated into myofibroblast
same,fascia (matrix jelly) mobilization into wounds,[3]; [6],completely inhibited
same,fascia (matrix jelly) mobilization into wounds,[3]; sodium salt,reduced fascia jelly movements
same,scar size / scarring of wounds,[4],reduced scaring of wounds
COC(=O)c1ccc2c(c1)NC(=O)/C2=C(\Nc1ccc(N(C)C(=O)CN2CCN(C)CC2)cc1)c1ccccc1 [Nintedanib],inward translocations (movements) of fluid matrix,"[5]; Nintedanib 10 μM i.p. 1 hour before bleomycin and repeatedly, 14 days",completely abrogated
same,activation of lung interstitial fibroblasts into myofibroblasts,[5]; two weeks after bleomycin,refrained from activating into pathologic YAP/TAZ-positive myofibroblasts
same,matrix on lung surfaces (pleural matrix pools): structures and fluorescence intensity,[5]; two weeks after bleomycin,maintained the same structures and fluorescence intensity; also recorded: rescues pleural matrix pools
same,fibrotic developments along lung airways and bronchioles,"[5]; two weeks after bleomycin, histology",very minimal signs of fibrotic developments
C=C(NC(=O)C(=C)NC(=O)c1csc(C2=N[C@@H]3c4csc(n4)[C@H]4NC(=O)c5csc(n5)[C@H]([C@](C)(O)[C@@H](C)O)NC(=O)[C@H]5CSC(=N5)/C(=C/C)NC(=O)[C@H]([C@@H](C)O)NC(=O)c5csc(n5)[C@]3(CC2)NC(=O)[C@H](C)NC(=O)C(=C)NC(=O)[C@H](C)NC(=O)[C@H]([C@@H](C)CC)N[C@@H]2C=Cc3c([C@H](C)O)cc(nc3[C@H]2O)C(=O)O[C@@H]4C)n1)C(N)=O [Thiostrepton],phenotype as inhibitor of ECM movement,skin-fascia explants,anti-fibrotic phenotype
same,"inter-cell connectivity, sprouting and reticulations within the fascia",fascia fibroblasts [1],completely inhibited sprouting and reticulations
same,cell death (caspase 3),fascia fibroblasts [2],increased
same,cell proliferation activity (Ki67),fascia fibroblasts [2],decreased
same,fascia (matrix jelly) mobilization into wounds,[3],reduced fascia jelly movements; also recorded: inhibited
same,scar size / scarring of wounds,[4],reduced scaring of wounds
